Experiments:
[1] = molecular target: T1, human kinesin spindle protein KSP/Eg5 (Homo sapiens, UniProt P52732); assay: Inhibition of the kinesin spindle protein KSP/Eg5 (ATPase, malachite green); format: biochemical; settings: 10 nM KSP motor domain, 500 μM ATP, 2 h RT
T1 construct: The motor domain of the human kinesin spindle protein KSP/Eg5; purchased tebu-bio/Cytoskeleton Inc 027EG01-XL
T1 sequence (P52732 18-359 limits assumed): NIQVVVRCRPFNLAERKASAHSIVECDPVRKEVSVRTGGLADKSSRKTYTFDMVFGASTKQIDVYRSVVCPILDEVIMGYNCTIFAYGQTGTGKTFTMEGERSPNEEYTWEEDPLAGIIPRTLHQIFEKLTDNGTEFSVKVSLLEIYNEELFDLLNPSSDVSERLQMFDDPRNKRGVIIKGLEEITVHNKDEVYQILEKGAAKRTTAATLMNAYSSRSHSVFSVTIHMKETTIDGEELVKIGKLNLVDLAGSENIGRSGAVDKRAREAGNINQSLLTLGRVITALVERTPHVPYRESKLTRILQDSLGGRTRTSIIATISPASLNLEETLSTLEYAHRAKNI
Description: C-1b Determination of the Inhibition of the Kinesin Spindle Protein KSP/Eg5 by Selected Examples
The motor domain of the human kinesin spindle protein KSP/Eg5 (from tebu-bio/Cytoskeleton Inc, No. 027EG01-XL) is incubated at a concentration of 10 nM with 50 μg/ml taxol- (from Sigma No. T7191-5MG) stabilized microtubuli (bovine or porcine, from tebu-bio/Cytoskeleton Inc) for 5 min at RT in 15 mM PIPES, pH 6.8 (5 mM MgCl2 and 10 mM DTT, from Sigma). The freshly prepared mixture is aliquoted into a 384-well MTP. The inhibitors to be examined at concentrations of 1.0×10^−6 M to 1.0×10^−13 and ATP (final concentration 500 μM, from Sigma) are then added. Incubation is at RT for 2 h. ATPase activity is detected by detecting the inorganic phosphate formed using malachite green (from Biomol). […] The individual data of the dose-activity curve are eight-fold determinations. The IC50 values are means of three independent experiments.

[2] = Cell permeability, flux assay using Caco-2 cells; settings: human, Caco-2
Description: C-3 In Vitro Tests for Determining Cell Permeability
The cell permeability of a substance can be investigated by means of in vitro testing in a flux assay using Caco-2 cells [M. D. Troutman and D. R. Thakker, Pharm. […] For this purpose, the cells were cultured for 15-16 days on 24-well filter plates. For the determination of permeation, the respective working example was applied in a HEPES buffer to the cells either apically (A) or basally (B) and incubated for 2 hours. After 0 hours and after 2 hours, samples were taken from the cis and trans compartments. The samples were separated by HPLC (Agilent 1200, Böblingen, Germany) using reverse phase columns.
Of critical importance for toxophores which are released intracellularly is the permeability from B to A [Papp(B-A)] and the ratio of Papp(B-A) to Papp(A-B) (efflux ratio): the lower this permeability, the slower the active and passive transport processes of the substance through the monolayer of Caco-2 cells.

| Compound | IC50 [1] [nM] | Papp B→A at 2 h [2] [×10⁻⁶ cm/s] | efflux ratio at 2 h [2] |
| --- | --- | --- | --- |
| CC(C)(C)[C@H](c1nc(-c2cc(F)ccc2F)cn1Cc1ccccc1)N(CC[C@H](N)C(=O)NCCNC(=O)CN1C(=O)CC(SC[C@H](N)C(=O)O)C1=O)C(=O)CO.O=C(O)C(F)(F)F (stereo partly drawn) [Example 64, S-[1-(2-{[2-({(2S)-2-Amino-4-[{(1R)-1-[1-benzyl-4-(2,5-difluorophenyl)-1H-imidazol-2-yl]-2,2-dimethylpropyl}(glycoloyl)amino]butanoyl}amino)ethyl]amino}-2-oxoethyl)-2,5-dioxopyrrolidin-3-yl]-L-cysteine trifluoroacetic acid (1:1)] | 3.06 | 1 | 2.8 |
| C[C@H](NC(=O)CCNC(=O)[C@@H](N)CCN(C(=O)CO)[C@@H](c1nc(-c2cc(F)ccc2F)cn1Cc1ccccc1)C(C)(C)C)C(=O)N[C@@H](CCCNC(N)=O)C(=O)Nc1ccc(NC(=O)CN2C(=O)CC(SC[C@H](N)C(=O)O)C2=O)cc1 (stereo partly drawn) [Example 65, N-{(2S)-2-Amino-4-[{(1R)-1-[1-benzyl-4-(2,5-difluorophenyl)-1H-imidazol-2-yl]-2,2-dimethylpropyl}(glycoloyl)amino]butanoyl}-beta-alanyl-L-alanyl-N-(4-{[(3-{[(2R)-2-amino-2-carboxyethyl]sulphanyl}-2,5-dioxopyrrolidin-1-yl)acetyl]amino}phenyl)-N^5-carbamoyl-L-ornithinamide] | 2.03 | 0.12 | 2.3 |
| CC(C)(C)[C@H](c1nc(-c2cc(F)ccc2F)cn1Cc1ccccc1)N(CC[C@H](N)C(=O)NCCC(=O)Nc1ccc(N2C(=O)CC(SC[C@H](N)C(=O)O)C2=O)cc1)C(=O)CO (stereo partly drawn) [Example 66, S-(1-{4-[(N-{(2S)-2-Amino-4-[{(1R)-1-[1-benzyl-4-(2,5-difluorophenyl)-1H-imidazol-2-yl]-2,2-dimethylpropyl}(glycoloyl)amino]butanoyl}-beta-alanyl)amino]phenyl}-2,5-dioxopyrrolidin-3-yl)-L-cysteine] | 8.08 | 2.7 | 12 |
| CC(C)(C)[C@H](c1nc(-c2cc(F)ccc2F)cn1Cc1ccccc1)N(CC[C@H](N)C(=O)N[C@H]1CCC[C@H]1C(=O)NCCN1C(=O)CC(SC[C@H](N)C(=O)O)C1=O)C(=O)CO (stereo partly drawn) [Example 67, S-{1-[2-({[(1R,2S)-2-({(2S)-2-Amino-4-[{(1R)-1-[1-benzyl-4-(2,5-difluorophenyl)-1H-imidazol-2-yl]-2,2-dimethylpropyl}(glycoloyl)amino]butanoyl}amino)cyclopentyl]carbonyl}amino)ethyl]-2,5-dioxopyrrolidin-3-yl}-L-cysteine] | 8.07 | 2.5 | 15 |
| C[C@H](NC(=O)CCNC(=O)[C@@H](N)CCN(C(=O)CO)[C@@H](c1nc(-c2cc(F)ccc2F)cn1Cc1ccccc1)C(C)(C)C)C(=O)N[C@@H](CCCNC(N)=O)C(=O)Nc1ccc(N2C(=O)CC(SC[C@H](N)C(=O)O)C2=O)cc1 (stereo partly drawn) [Example 68, N-{(2S)-2-Amino-4-[{(1R)-1-[1-benzyl-4-(2,5-difluorophenyl)-1H-imidazol-2-yl]-2,2-dimethylpropyl}(glycoloyl)amino]butanoyl}-beta-alanyl-L-alanyl-N-[4-(3-{[(2R)-2-amino-2-carboxyethyl]sulphanyl}-2,5-dioxopyrrolidin-1-yl)phenyl]-N^5-carbamoyl-L-ornithinamide] | 3.22 | 0.18 | 1.9 |
| CC(C)[C@H](NC(=O)CCNC(=O)[C@@H](N)CCN(C(=O)CO)[C@@H](c1nc(-c2cc(F)ccc2F)cn1Cc1ccccc1)C(C)(C)C)C(=O)N[C@@H](CCCNC(N)=O)C(=O)Nc1ccc(CC(=O)NCCN2C(=O)CC(SC[C@H](N)C(=O)O)C2=O)cc1 (stereo partly drawn) [Example 69, N-{(2S)-2-Amino-4-[{(1R)-1-[1-benzyl-4-(2,5-difluorophenyl)-1H-imidazol-2-yl]-2,2-dimethylpropyl}(glycoloyl)amino]butanoyl}-beta-alanyl-L-valyl-N-[4-(2-{[2-(3-{[(2R)-2-amino-2-carboxyethyl]sulphanyl}-2,5-dioxopyrrolidin-1-yl)ethyl]amino}-2-oxoethyl)phenyl]-N^5-carbamoyl-L-ornithinamide] | 4.82 | 0.15 | 2 |
| C[C@H](NC(=O)CCNC(=O)[C@@H](N)CCN(C(=O)CO)[C@@H](c1nc(-c2cc(F)ccc2F)cn1Cc1ccccc1)C(C)(C)C)C(=O)N[C@@H](CCCNC(N)=O)C(=O)Nc1ccc(CC(=O)NCCN2C(=O)CC(SC[C@H](N)C(=O)O)C2=O)cc1 (stereo partly drawn) [Example 70, N-{(2S)-2-Amino-4-[{(1R)-1-[1-benzyl-4-(2,5-difluorophenyl)-1H-imidazol-2-yl]-2,2-dimethylpropyl}(glycoloyl)amino]butanoyl}-beta-alanyl-L-alanyl-N-[4-(2-{[2-(3-{[(2R)-2-amino-2-carboxyethyl]sulphanyl}-2,5-dioxopyrrolidin-1-yl)ethyl]amino}-2-oxoethyl)phenyl]-N^5-carbamoyl-L-ornithinamide] | 3.18 | 0.16 | 1.9 |
| CC(C)(C)[C@H](c1nc(-c2cc(F)ccc2F)cn1Cc1ccccc1)N(CC[C@H](N)C(=O)NCCOCCOCCOCCC(=O)O)C(=O)CO.O=C(O)C(F)(F)F [Example 71, (15S,19R)-15-Amino-19-[1-benzyl-4-(2,5-difluorophenyl)-1H-imidazol-2-yl]-18-glycoloyl-20,20-dimethyl-14-oxo-4,7,10-trioxa-13,18-diazahenicosan-1-oic acid/trifluoroacetic acid (1:1)] | 1.22 | 28 | 280 |
| CC(C)[C@H](NC(=O)CCNC(=O)[C@@H](N)CCN(C(=O)CO)[C@@H](c1nc(-c2cc(F)ccc2F)cn1Cc1ccccc1)C(C)(C)C)C(=O)N[C@@H](CCCNC(N)=O)C(=O)O.O=C(O)C(F)(F)F [Example 72, N-{(2S)-2-Amino-4-[{(1R)-1-[1-benzyl-4-(2,5-difluorophenyl)-1H-imidazol-2-yl]-2,2-dimethylpropyl}(glycoloyl)amino]butanoyl}-beta-alanyl-L-valyl-N^5-carbamoyl-L-ornithine/trifluoroacetic acid (1:1)] | 4.85 | 0.25 | 2.1 |
| C[C@H](NC(=O)CCNC(=O)[C@@H](N)CCN(C(=O)CO)[C@@H](c1nc(-c2cc(F)ccc2F)cn1Cc1ccccc1)C(C)(C)C)C(=O)N[C@@H](CCCNC(N)=O)C(=O)O.O=C(O)C(F)(F)F [Example 73, N-{(2S)-2-Amino-4-[{(1R)-1-[1-benzyl-4-(2,5-difluorophenyl)-1H-imidazol-2-yl]-2,2-dimethylpropyl}(glycoloyl)amino]butanoyl}-beta-alanyl-L-alanyl-N^5-carbamoyl-L-ornithine/trifluoroacetic acid (1:1)] | 4.52 | 0.46 | 2.7 |
| CC(C)(C)[C@H](c1nc(-c2cc(F)ccc2F)cn1Cc1ccccc1)N(CC[C@H](N)C(=O)NCCC(=O)N[C@@H](Cc1ccc(N)cc1)C(=O)O)C(=O)CO.O=C(O)C(F)(F)F.O=C(O)C(F)(F)F [Example 74, N-{(2S)-2-Amino-4-[{(1R)-1-[1-benzyl-4-(2,5-difluorophenyl)-1H-imidazol-2-yl]-2,2-dimethylpropyl}(glycoloyl)amino]butanoyl}-beta-alanyl-4-amino-L-phenylalanine/trifluoroacetic acid (1:2)] | 6.13 | 2.6 | 15 |

From US10022453B2 (BAYER PHARMA AKTIENGESELLSCHAFT, priority 2013, dated 2018)
